The values that follow come from ChEMBL document CHEMBL1201862, “PubChem BioAssay data set” (2004).

Assay in all cases: inhibition of tumour cell growth, NCI panel, 48 h
In assay [1] the test system is TK-10.
For assay [2], the system named is CCRF-CEM.
Assay [3] concerns OVCAR-8.
Assay [4] concerns A498.
Assay [5] deals with 786-0.
Assay [6] has as its system RXF 393.
For assay [7], the system named is IGROV-1.
The subject of assay [8] is LOX IMVI.
In assay [9] the test system is UACC-257.
Assay [10] deals with HCT-15.
For assay [11], the system named is OVCAR-3.
In assay [12] the test system is UACC-62.
Assay [13] has as its system BT-549.
The test system of assay [14] is EKVX.
For assay [15], the system named is HOP-92.
For assay [16], the system named is COLO 205.
Assay [17] has as its system OVCAR-5.
The test system of assay [18] is SK-MEL-5.
The subject of assay [19] is NCI-H522.

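These data come from cells grown in 96-well plates and exposed to compound for 48 hours at five concentrations. GI50 marks 50% less growth.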 Active and inactive are the calls of the source. Rule as the data show it: active = GI50 up to about 1.1 µM and inactive = higher.

Take `CCOP(=O)(OCC)Oc1c(OC)c2[nH]c(C(=O)OC)cc2c2c(C(=O)O)c[nH]c12`: the GI50 in assay [1], in assay [2], in assay [3], in assay [4], in [5] and in [6] was > 100 µM (inactive) throughout. Moreover, the GI50 is > 100 µM (inactive) in [7]; > 100 µM (inactive) in assay [8]; > 100 µM (inactive) in assay [9]; greater than 100 µM in assay [10]; > 100 µM (inactive) in assay [11]; > 100 µM (inactive) in [12]. The GI50 in assay [13], in assay [14], in assay [15], in [16], in [17] and in [18] was > 100 µM (inactive) each time. In addition, in assay [19], the GI50 is > 100 µM (inactive).

As for `COc1cc(/N=N/c2cccc(S(N)(=O)=O)c2)c2ccccc2c1N`, the GI50 in [1] is 16.1 µM (inactive); in [2] it was 8.17 µM (inactive); in assay [3], 16.3 µM (inactive); in assay [4], 19.7 µM (inactive); in assay [5] it was 13.4 µM (inactive); in [6] it was 15.7 µM (inactive). Besides, the GI50 in [7] was 10.3 µM (inactive); in assay [8] it was 3.4 µM (inactive); in assay [9] it was 1.54 µM (inactive); in [10], 18.2 µM; in [11], 4.86 µM (inactive); in [12], 2.07 µM (inactive). Besides, the GI50 in assay [13] was 7.33 µM (inactive); in [14], 13.8 µM (inactive); in assay [15], 17.3 µM (inactive); in assay [16] it was 13 µM (inactive); in [17], 17.5 µM (inactive); in [18], 1.8 µM (inactive). For the same compound, the GI50 in assay [19] is 12.1 µM (inactive).

With `COC(=O)c1c2c(cc3c1CC1(Cc4ccc(C(C)=O)cc4C1)C3)CCC2` (stereo unspecified), the GI50 in [1] was > 100 µM (inactive); in [2], 27.7 µM (inactive); in assay [3], 68.9 µM (inactive); in [4], 31.2 µM (inactive); in assay [5] it was 51.8 µM (inactive); in assay [6], 20.2 µM (inactive). Moreover, the GI50 is 87.5 µM (inactive) in assay [7]; 21.1 µM (inactive) in [8]; 25.2 µM (inactive) in assay [9]; 31.8 µM in [10]; > 100 µM (inactive) in assay [11]; 35.7 µM (inactive) in [12]. For the same compound, the GI50 in [13] is 56.8 µM (inactive); in [14], 42.7 µM (inactive); in assay [15], 93.3 µM (inactive); in assay [16], 31.9 µM (inactive); in assay [17], > 100 µM (inactive); in assay [18], 18 µM (inactive). Further, the GI50 in assay [19] was 21 µM (inactive).

As to `COc1nc2nccnc2c(=O)n1C`, the GI50 in assay [1], in assay [2], in assay [3], in assay [4], in assay [5] and in assay [6] was > 10 µM (inactive) each time. Moreover, the GI50 in assay [7] is > 10 µM (inactive); in assay [8] it was > 10 µM (inactive); in assay [9], > 10 µM (inactive); in [10], greater than 10 µM; in assay [11], > 10 µM (inactive); in assay [12], > 10 µM (inactive). The GI50 in assay [13], in assay [14], in assay [15], in assay [16], in [17] and in [18] was > 10 µM (inactive) each time. In addition, the GI50 in assay [19] was > 10 µM (inactive).

Regarding `Cc1ccc2[nH]/c(=N/S(=O)(=O)c3cc(C)c(Cl)cc3S)[nH]c2c1`, the GI50 was > 100 µM (inactive) in [1]; 21.4 µM (inactive) in assay [2]; 93.1 µM (inactive) in assay [3]; 52.8 µM (inactive) in [4]; 45.9 µM (inactive) in assay [5]; > 100 µM (inactive) in assay [6]. The GI50 is 34.4 µM (inactive) in assay [7]; 25.4 µM (inactive) in assay [8]; > 100 µM (inactive) in assay [9]; 67.9 µM in assay [10]; 91.2 µM (inactive) in [11]; > 100 µM (inactive) in assay [12]. The GI50 in assay [13] is > 100 µM (inactive); in assay [14], 31.9 µM (inactive); in assay [15] it was > 100 µM (inactive); in [16], 58.5 µM (inactive); in assay [17] it was > 100 µM (inactive); in assay [18], 31.3 µM (inactive). The GI50 in assay [19] was > 100 µM (inactive).

Take `O=C(O)CCC(N/N=N/c1ccc(-c2nc3ccccc3[nH]2)cc1)C(=O)O` (stereo unspecified): the GI50 was > 100 µM (inactive) in assay [1]; 15 µM (inactive) in assay [2]; 34.8 µM (inactive) in assay [3]; > 100 µM (inactive) in assay [4]; 52.1 µM (inactive) in assay [5]; 40.9 µM (inactive) in assay [6]. Also, the GI50 in [7] is 20.8 µM (inactive); in [8], 43.1 µM (inactive); in assay [9], > 100 µM (inactive); in assay [10] it was 34 µM; in assay [11], 30.3 µM (inactive); in [13], 23.9 µM (inactive). The GI50 was > 100 µM (inactive) in [14]; 36.1 µM (inactive) in [15]; > 100 µM (inactive) in assay [16]; > 100 µM (inactive) in [17]; 66.5 µM (inactive) in [18]; > 100 µM (inactive) in assay [19].

Consider `COc1cc2cc(C(=O)N3CC(CCl)c4c3cc(N)c3ccccc43)[nH]c2c(OC)c1OC` (stereo unspecified), for which the GI50 in assay [1], in [2], in assay [3], in [4], in [5] and in assay [6] was < 0.01 µM (active) in each case. Moreover, the GI50 in [7] is < 0.01 µM (active); in assay [8], < 0.01 µM (active); in assay [9], < 0.01 µM (active); in [10] it was less than 0.01 µM; in assay [11], < 0.01 µM (active); in assay [12] it was < 0.01 µM (active). The GI50 in assay [13], in [14], in [15], in assay [16], in assay [17] and in [18] was < 0.01 µM (active) each time. Also, the GI50 in assay [19] was < 0.01 µM (active).

For the compound `COc1cc(C(c2c(O)c3ccccc3oc2=O)c2c(O)c3ccccc3oc2=O)ccc1O`, the GI50 in [1] was 20.3 µM (inactive); in [2], 28.8 µM (inactive); in assay [3], 27.7 µM (inactive); in [4], 51.9 µM (inactive); in assay [5], 20.2 µM (inactive); in [6], 18 µM (inactive). For the same compound, the GI50 in assay [7] is 11.3 µM (inactive); in [8] it was 24.6 µM (inactive); in assay [9], 19.1 µM (inactive); in assay [10], 17.4 µM; in [11], 19.5 µM (inactive); in assay [12], 18.5 µM (inactive). The GI50 in assay [13] was 19.1 µM (inactive); in assay [14], 27.9 µM (inactive); in assay [15], 14.6 µM (inactive); in assay [16], 17.2 µM (inactive); in assay [17] it was 18.7 µM (inactive); in assay [18], 15.7 µM (inactive). For the same compound, the GI50 in [19] was 20.8 µM (inactive).
